Legend:
[1] = test system: MCF-7 (breast adenocarcinoma); test: cells; conditions: for IC50: read-out: IC50 MCF-7, 72 h, MTT, mean ± SD; for SI (MCF-7): selectivity index: ratio of IC50 Hek293T to IC50 MCF-7
Method: (§1) The parent compound harmine, as well as the reference drug 5-fluorouracil, were used as positive controls.
(§2) The experiments were carried out on five human cell lines purchased from American Type Culture Collection (ATCC): HepG2 (hepatocellular carcinoma; ATCC® HB-8065™), SW620 (colorectal adenocarcinoma; ATCC® CCL-227™), HCT116 (colorectal carcinoma; ATCC® CCL-247™), MCF-7 (breast adenocarcinoma; ATCC® HTB-22™), and Hek293T (embryonic kidney cells; ATCC® CRL-3216™). All cell lines were cultured as monolayers and maintained in Dulbecco’s Modified Eagle Medium (DMEM) (Capricorn Scientific, Ebsdorfergrund, Germany) supplemented with 10% fetal bovine serum (FBS) (Capricorn Scientific, Ebsdorfergrund, Germany), 100 U/mL penicillin, and 100 µg/mL streptomycin (Capricorn Scientific, Ebsdorfergrund, Germany) in a humidified atmosphere with 5% CO2 at 37 °C. Cells were seeded in 96-well plates (Corning, Durham, NC, USA) at 5000–7000 cells per well (depending on the cell-doubling time of a specific cell line) in 0.1 mL media and cultured for 24 h. The next day, the medium was aspirated, and cells were treated for 72 h. Only the compounds that led to more than a 50% reduction in mitochondrial metabolic activity at a concentration of 50 µM were selected for further analysis. The following concentrations of selected compounds were used: 25, 10, 5, and 1 µM. Working dilutions were freshly prepared on the day of the testing. A fresh growth medium was added to untreated control cells, which were defined as 100% viable. DMSO (0.13%) in DMEM was considered a negative control. 5-Fluorouracil (5-FU) and harmine were used as positive controls. At the end of treatment, the medium was removed, and cells were incubated for 1 h with 0.5 mg/mL MTT (Abcam, Cambridge, MA, USA) dissolved in serum-deprived DMEM. The MTT-containing medium was then removed, and 0.1 mL isopropanol was added per well to lyse cells and dissolve formazan. The optical density was measured at 570 nm using a microplate reader (VICTOR3, PerkinElmer, Waltham, MA, USA). Each test point was performed in triplicate. The absorbance was directly proportional to the cell viability. The IC50 values (concentration required to decrease viability by 50%) were calculated by using nonlinear regression on the sigmoidal dose–response plots and are expressed as mean ± SD.

[2] = test system: HepG2 (hepatocellular carcinoma); test: MTT cytotoxicity assay, HepG2; assay type: cell-based, human; conditions: 72 h, MTT; mean ± SD; read-out: IC50 HepG2
Method: as §1, §2

[3] = test system: Hek293T (embryonic kidney cells); test: MTT cytotoxicity assay, Hek293T; assay type: cell-based, human; conditions: noncancer cell line; 72 h, MTT; mean ± SD; read-out: IC50 Hek293T
Method: as §1, §2

[4] = test system: SW620 (colorectal adenocarcinoma); test: MTT cytotoxicity assay, SW620; assay type: cell-based, human; conditions: 72 h, MTT; mean ± SD; read-out: IC50 SW620
Method: as §1, §2

[5] = test system: P. falciparum Dd2 (multidrug-resistant) erythrocytic stages; test: In vitro drug sensitivity assay (HRP2-ELISA) against erythrocytic stages, PfDd2; assay type: cell-based; conditions: multidrug-resistant strain; three days incubation; mean ± SD; read-out: IC50 PfDd2
Method: (§3) The in vitro activity of harmicens 20–37 against the erythrocytic stages of CQ-sensitive (Pf3D7) and multidrug-resistant (PfDd2) P. falciparum strains was evaluated following a previously described method (Table 1).
(§4) The antiplasmodial activity of harmicens 20–37 was evaluated against two strains of P. falciparum (3D7—CQ-sensitive, Dd2—multidrug-resistant) as previously described using the histidine-rich protein 2 (HRP2) assay. Briefly, 96-well plates were pre-coated with the tested compounds in a three-fold dilution before ring-stage parasites were added to complete the culture medium at a hematocrit of 1.5% and parasitemia of 0.05%. After three days of incubation at 37 °C, 5% CO2, and 5% oxygen, plates were frozen until HRP2-ELISA analysis. All compounds were evaluated in duplicate in at least two independent experiments. The IC50 was determined using a nonlinear regression analysis of log concentration–response curves using the drc-package v0.9.0 of R v2.6.1 (R Foundation, Vienna, Austria).

[6] = test system: P. falciparum 3D7 (CQ-sensitive) erythrocytic stages; test: In vitro drug sensitivity assay (HRP2-ELISA) against erythrocytic stages, Pf3D7; assay type: cell-based; conditions: for IC50: read-out: IC50 Pf3D7
Method: as §3, §4

[7] = test system: HCT116 (colorectal carcinoma); test: MTT cytotoxicity assay, HCT116; assay type: cell-based, human; conditions: for IC50: 72 h, MTT, mean ± SD, read-out: IC50 HCT116; for SI (HCT116): selectivity index: ratio of IC50 Hek293T to IC50 HCT116
Method: as §1, §2

[8] = test system: HCT116 cells; test: Cell cycle analysis (propidium iodide, flow cytometry); assay type: cell-based, human; conditions: 3 µM and 6 µM
Method: To that end, the cells were treated for 24 and 48 h with 3 µM and 6 µM concentrations of each compound, which corresponded to 0.5 × IC50 and IC50 values obtained in the MTT assay after 72 h, respectively. Afterward, the DNA was stained with propidium iodide and subjected to flow cytometry analysis.
HCT116 cells were seeded onto 6-well plates (2 × 10^5 cells per well). After 24 h, the tested compounds 28 and 36 were added at two concentrations—3 µM and 6 µM. After 24 h and 48 h, the attached cells were trypsinized, combined with floating cells, washed with phosphate buffer saline (PBS), fixed with 70% ethanol, and stored at −20 °C. Immediately before analysis, the cells were washed two times with PBS, treated with 0.1 μg/μL of RNAse A, and stained for 1 h on ice with 50 μg/mL of propidium iodide. The stained cells were then analyzed using a BD FACScalibur flow cytometer (20,000 counts were measured). The percentage of cells in each cell cycle phase was determined using FlowJo software (TreeStar Inc., San Francisco, CA, USA). The tests were performed in duplicate and repeated in two separate experiments. The average values from duplicates from one representative experiment ± SD are presented.

[9] = CQ-sensitive strain, three days incubation, mean ± SD

| Compound | IC50 [1] | SI (MCF-7) [1] | IC50 [2] | IC50 [3] | IC50 [4] | IC50 [5] | decrease in antiplasmodial activity against Pf3D7 relative to harmicene 23 ([6]; 28 (methylene bridge) versus its counterpart 23) | IC50 Pf3D7 [6, 9] | IC50 [6, 9] | IC50 [7] | SI (HCT116) [7] | effect on cell cycle distribution after 24 h [8] | effect on cell cycle distribution after 48 h ([8]; 48 h) |
| --- | --- | --- | --- | --- | --- | --- | --- | --- | --- | --- | --- | --- | --- |
| Cc1nccc2c1[nH]c1cc(OCc3cn(C[c-]4cccc4)nn3)ccc12.[Fe+2].c1cc[cH-]c1 [Compound 28, 7-((1-(Ferrocenylmethyl)-1H-1,2,3-triazol-4-yl)methoxy)-1-methyl-9H-pyrido[3,4-b]indole] | > 50 µM | >1 | > 50 µM | > 50 µM | > 50 µM | > 56 µM | 370 fold | inactive at the highest concentration tested | > 56 µM | 7.4 ± 0.4 µM | >6.8 | statistically significant increase in cells in the G1 phase at both tested concentrations | pronounced G2/M cell cycle arrest |
| COc1ccc2c3ccnc(C)c3n(CCNC(=O)[c-]3cccc3)c2c1.[Fe+2].c1cc[cH-]c1 [Compound 33, N-(2-(7-Methoxy-1-methyl-9H-pyrido[3,4-b]indol-9-yl)ethyl)ferrocenecarboxamide] | 30.5 ± 13.2 µM | >1.7 | > 50 µM | > 50 µM | > 50 µM | 2.04 ± 0.29 µM |  |  | 0.4 ± 0.18 µM | 16.3 ± 3.2 µM |  |  |  |
| O=C(C[c-]1cccc1)NCc1nccc2c1[nH]c1ccccc12.[Fe+2].c1cc[cH-]c1 [Compound 34, N-((9H-Pyrido[3,4-b]indol-1-yl)methyl)-2-ferrocenylacetamide] | > 50 µM | >1 | > 50 µM | > 50 µM | > 50 µM | 1.11 ± 0.01 µM |  |  | 1.34 ± 0.09 µM | > 50 µM | >1 |  |  |
| Cc1nc(CNC(=O)C[c-]2cccc2)cc2c1[nH]c1ccccc12.[Fe+2].c1cc[cH-]c1 [Compound 35, N-((1-Methyl-9H-pyrido[3,4-b]indol-3-yl)methyl)-2-ferrocenylacetamide] | 36.9 ± 6.8 µM | >1.4 | > 50 µM | > 50 µM | 25 ± 8.1 µM | 13 ± 5.9 µM |  |  | 7.85 ± 2.18 µM | 20.9 ± 1.5 µM | >2.4 |  |  |
| Cc1nccc2c1[nH]c1cc(OCCNC(=O)C[c-]3cccc3)ccc12.[Fe+2].c1cc[cH-]c1 [Compound 36, N-(2-((1-Methyl-9H-pyrido[3,4-b]indol-7-yl)oxy)ethyl)-2-ferrocenylacetamide] | 4.5 ± 0.3 µM | 1.9 | 7.4 ± 0.5 µM | 8.4 ± 0.3 µM | 4.2 ± 0.3 µM | 1.53 ± 0.06 µM |  |  | 0.42 ± 0.02 µM | 5.9 ± 1.3 µM | 1.4 | G1 phase arrest only at a higher concentration |  |
| COc1ccc2c3ccnc(C)c3n(CCNC(=O)C[c-]3cccc3)c2c1.[Fe+2].c1cc[cH-]c1 [Compound 37, N-(2-(7-Methoxy-1-methyl-9H-pyrido[3,4-b]indol-9-yl)ethyl)-2-ferrocenylacetamide] | 13.2 ± 0.5 µM | 2.3 | 28 ± 2.5 µM | 30.8 ± 2.4 µM | 9.9 ± 1.1 µM | 1.8 ± 0.35 µM |  |  | 0.83 ± 0.23 µM | 7.5 ± 0.4 µM | 4.1 |  |  |
